# Several values for one entry are separate records, joined by “and”; a condition that tells them apart may be missing. Equal entries are not always repeated.
# Key:
# interferon (α) = assay: Interferon (α) induction in human cells (in vitro human blood cell system, interferon by bioassay); format: cell-based; conditions: human PBM's, 48 hours
# Description: An in vitro human blood cell system was used to assess interferon induction by compounds of the invention. Activity is based on the measurement of interferon secreted into culture media. Interferon is measured by bioassay.
# Whole blood is collected by venipuncture into EDTA vacutainer tubes. Peripheral blood mononuclear cells (PBM's) are separated from whole blood by using either LeucoPREP™ Brand Cell Separation Tubes (available from Becton Dickinson) or Ficoll-Paque® solution (available from Pharmacia LKB Biotechnology Inc, Piscataway, N.J.). […] 200 μL portions of PBM suspension are added to 96 well (flat bottom) sterile tissue culture plates (Becton Dickinson Labware, Lincoln Park, N.J.).
# The compounds are solubilized in ethanol, dimethyl sulfoxide or tissue culture water then diluted with tissue culture water, 0.01N sodium hydroxide or 0.01N hydrochloric acid (The choice of solvent will depend on the chemical characteristics of the compound being tested.). Ethanol or DMSO concentration should not exceed a final concentration of 1% for addition to the culture wells. Compounds are initially tested in a concentration range of from about 0.1 μg/mL to about 5 μg/mL. Compounds which show induction at a concentration of 0.5 μg/mL are then tested in a wider concentration range.
# The solution of test compound is added in a volume (less than or equal to 50 μL) to the wells containing 200 μL of diluted whole blood or of PBM's in media. Solvent and/or media is added to control wells (wells with no test compound) and as needed to adjust the final volume of each well to 250 μL. The plates are covered with plastic lids, vortexed gently and then incubated for 48 hours at 37° C. with a 5% carbon dioxide atmosphere.
# Following incubation, the plates are covered with parafilm and then centrifuged at 1000 rpm for 10 to 15 minutes at 4° C. in a Damon IEC Model CRU-5000 centrifuge. Media (about 200 μL) is removed from 4 to 8 wells and pooled into 2 mL sterile freezing vials. Samples are maintained at −70° C. until analysis.
# Interferon is determined by bioassay using A549 human lung carcinoma cells challenged with encephalomyocarditis. The details of the bioassay method have been described by G. L. Brennan and L. H. Kronenberg in “Automated Bioassay of Interferons in Micro-test Plates”, Biotechniques, June/Jul. […] The incubated cells are infected with an inoculum of encephalomyocarditis virus. The infected cells are incubated for an additional period at 37° C. before quantifying for viral cytopathic effect. The viral cytopathic effect is quantified by staining followed by spectrophotometric absorbance measurements. Results are expressed as alpha reference units/mL based on the value obtained for NIH HU IF-L standard.
# Compounds of the invention were tested for their ability to induce interferon in human cells using the test method described above.
melting point,SMILES,Interferon (α) Induction in Human Cells (interferon (α); Dose Concentration 0.01 μg/mL),Interferon (α) Induction in Human Cells (interferon (α); Dose Concentration 0.05 μg/mL),Interferon (α) Induction in Human Cells (interferon (α); Dose Concentration 0.10 μg/mL),Interferon (α) Induction in Human Cells (interferon (α); Dose Concentration 0.50 μg/mL),Interferon (α) Induction in Human Cells (interferon (α); Dose Concentration 1.0 μg/mL),Interferon (α) Induction in Human Cells (interferon (α); Dose Concentration 5.0 μg/mL),Interferon (α) Induction in Human Cells (interferon (α); Dose Concentration 10.0 μg/mL),Interferon (α) Induction in Human Cells (interferon (α); Dose Concentration 25.0 μg/mL),Interferon (α) Induction in Human Cells (interferon (α); Dose Concentration 50.0 μg/mL)
184 to 187 °C and 184 to 186 °C,"Cc1nc2c(N)nc3ccccc3c2s1 [Example 2, 2-Methylthiazolo[4,5-c]quinolin-4-amine]",−,−,±,+,+,+,,,
170 to 172 °C and 169 to 171 °C,"CCc1nc2c(N)nc3ccccc3c2s1 [Example 8, 2-Ethylthiazolo[4,5-c]quinolin-4-amine]",−,−,−,+,+,+,,,
239 to 241 °C,"Nc1nc2ccccc2c2sc(/C=C/c3ccccc3)nc12 [Example 22, 2-(2-Phenyl-1-ethenyl)thiazolo[4,5-c]quinolin-4-amine]",−,−,−,−,−,−,+,+,+
183 to 185 °C,"COCc1nc2c(N)nc3ccccc3c2s1 [Example 30, 2-(Methoxymethyl)thiazolo[4,5-c]quinolin-4-amine]",−,−,−,−,+,+,,,
139 to 142 °C,"CCCc1nc2c[n+]([O-])c3cccnc3c2s1 [Example 59, 2-Propylthiazolo[4,5-c][1,5]naphthyridine-5N-oxide]",,,,,,,,,
137 to 139 °C,"CCCc1nc2c[n+]([O-])ccc2s1 [Example 61, 2-Propylpyrido[3,4-d][1,3]thiazole-5N-oxide]",,,,,,,,,

# The next lines start with the compound.
SMILES,melting point,Interferon (α) Induction in Human Cells (interferon (α); Dose Concentration 0.01 μg/mL),Interferon (α) Induction in Human Cells (interferon (α); Dose Concentration 0.05 μg/mL),Interferon (α) Induction in Human Cells (interferon (α); Dose Concentration 0.10 μg/mL),Interferon (α) Induction in Human Cells (interferon (α); Dose Concentration 0.50 μg/mL),Interferon (α) Induction in Human Cells (interferon (α); Dose Concentration 1.0 μg/mL),Interferon (α) Induction in Human Cells (interferon (α); Dose Concentration 5.0 μg/mL),Interferon (α) Induction in Human Cells (interferon (α); Dose Concentration 10.0 μg/mL),Interferon (α) Induction in Human Cells (interferon (α); Dose Concentration 25.0 μg/mL),Interferon (α) Induction in Human Cells (interferon (α); Dose Concentration 50.0 μg/mL)
"Cc1nc2c(N)nc3ccccc3c2s1.Cl [Example 4, 2-Methylthiazolo[4,5-c]quinolin-4-amine Hydrochloride]",323 to 325 °C,−,−,−,+,+,+,,,
"CCCCCc1nc2c(N)nc3ccccc3c2s1 [Example 16, 2-Pentylthiazolo[4,5-c]quinolin-4-amine]",119 to 121 °C,−,−,−,−,+,+,,,
"CC(C)(Cc1nc2c(N)nc3ccccc3c2s1)OC(N)=O [Example 26, 2-(4-Aminothiazolo[4,5-c]quinolin-2-yl)-1,1-dimethylethyl Carbamate]",222 to 223 °C,−,−,−,−,−,+,+,+,+
"CCOCc1nc2c(N)nc3ccccc3c2s1 [Example 28, 2-(Ethoxymethyl)thiazolo[4,5-c]quinoline-4-amine]",149 to 151 °C,−,−,−,+,+,+,,,
